Measurements taken from patent publication US12336981B2, “Compounds and compositions for the inhibition of NAMPT” (Valo Health, Inc., priority 2010, dated 2025).
Like-named read-outs stand apart in the source and are kept apart here.

Assays:
A2780 cells = assay: In-vitro cell proliferation assay (SRB), A2780 cells; type: cell-based; settings: A2780 cells, 72 hours, read-out: A2780 IC50
Method in brief: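 SRB read-out: 6% TCA fix 1 h at 4° C., stain, Tris solubilize, A570. Media-only background subtracted; % inhibition from two compound concentrations.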

NAMPT = target: T1, NAMPT (Homo sapiens, UniProt P43490); assay: Biochemical inhibition assay: NAMPT enzymatic reaction, NMN quantified by mass spectrometry; settings: read-out: Biochem IC50
T1 construct: His tag; host or cells: E. coli
Method in brief: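 Inhibition of E. coli-expressed His-tagged human NAMPT, measured as NMN formation by mass spectrometry after a 30 min room-temperature reaction containing 1 μM NAM, 100 μM PRPP and 2.5 mM ATP.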

[1] = Homo sapiens, A2780, 72 h, SRB assay

T1 sequence (P43490 whole entry): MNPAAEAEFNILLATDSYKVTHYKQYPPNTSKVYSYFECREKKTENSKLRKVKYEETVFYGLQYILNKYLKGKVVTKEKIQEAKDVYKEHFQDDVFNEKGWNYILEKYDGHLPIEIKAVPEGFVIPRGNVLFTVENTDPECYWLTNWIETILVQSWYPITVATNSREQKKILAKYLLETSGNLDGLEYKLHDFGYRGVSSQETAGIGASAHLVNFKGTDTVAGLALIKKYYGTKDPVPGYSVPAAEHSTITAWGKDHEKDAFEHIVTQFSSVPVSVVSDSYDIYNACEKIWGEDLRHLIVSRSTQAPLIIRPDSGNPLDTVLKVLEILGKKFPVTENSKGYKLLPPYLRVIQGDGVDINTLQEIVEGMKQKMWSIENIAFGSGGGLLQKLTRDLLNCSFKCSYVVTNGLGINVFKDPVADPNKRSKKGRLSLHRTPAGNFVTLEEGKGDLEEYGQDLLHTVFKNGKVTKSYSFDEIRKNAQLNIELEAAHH

## CNS(=O)(=O)c1ccccc1S(=O)(=O)c1ccc(CNC(=O)c2cc3cnccc3[nH]2)cc1 [N-[(4-{[2-(methylsulfamoyl)benzene]sulfonyl}phenyl)methyl]-1H-pyrrolo[3,2-c]pyridine-2-carboxamide]
A2780 cells; [1]
  IC50: 202 nM
NAMPT; NAMPT enzymatic reaction
  IC50: 76 nM

## O=C(NCc1ccc(S(=O)(=O)c2cccc(-n3cccn3)c2)cc1)c1cc2cnccc2[nH]1 [N-[(4-{[3-(1H-pyrazol-1-yl)benzene]sulfonyl}phenyl)methyl]-1H-pyrrolo[3,2-c]pyridine-2-carboxamide]
A2780 cells; Homo sapiens, A2780, 72 h, SRB
  IC50: 7.4 nM
NAMPT; NAMPT enzymatic assay
  IC50: 9.7 nM

## O=C(NCc1ccc(S(=O)(=O)c2cccc(OCC(F)(F)F)c2)cc1)c1ccc2nccn2c1
A2780 cells; Homo sapiens, A2780, 72 h, SRB
  IC50: 5.9 nM
NAMPT; NAMPT enzymatic assay
  IC50: 15 nM

## Cn1ncc2c(S(=O)(=O)c3ccc(CNC(=O)c4cc5cnccc5[nH]4)cc3)cccc21 [N-{[4-(1-methyl-1H-indazole-4-sulfonyl)phenyl]methyl}-1H-pyrrolo[3,2-c]pyridine-2-carboxamide]
A2780 cells; Homo sapiens, A2780, 72 h, SRB
  IC50: 1.5 nM
NAMPT; NAMPT enzymatic assay
  IC50: 3.1 nM

## CCOc1cc(F)ccc1S(=O)(=O)c1ccc(CNC(=O)c2cc3ccncc3s2)cc1
A2780 cells; Homo sapiens, A2780, 72 h, SRB
  IC50: 0.9 nM
NAMPT; NAMPT enzymatic reaction
  IC50: 3.8 nM

## N#Cc1ccc(S(=O)(=O)c2ccc(CNC(=O)c3cnc4[nH]ncc4c3)cc2)cc1 [N-({4-[(4-cyanobenzene)sulfonyl]phenyl}methyl)-1H-pyrazolo[3,4-b]pyridine-5-carboxamide]
A2780 cells; Homo sapiens, A2780, 72 h, SRB
  IC50: 20.8 nM
NAMPT; NAMPT enzymatic reaction
  IC50: 28.4 nM

## Cc1nc(-c2cccc(S(=O)(=O)c3ccc(CNC(=O)c4cc5ccncc5s4)cc3)c2)no1
A2780 cells; Homo sapiens, A2780, 72 h, SRB
  IC50: 1 nM
NAMPT; NAMPT enzymatic assay
  IC50: 3.3 nM

## COc1ccc(F)cc1S(=O)(=O)c1ccc(CNC(=O)c2cc3cnccc3[nH]2)cc1 [N-({4-[(5-fluoro-2-methoxybenzene)sulfonyl]phenyl}methyl)-1H-pyrrolo[3,2-c]pyridine-2-carboxamide]
A2780 cells; [1]
  IC50: 3 nM
NAMPT; NAMPT enzymatic reaction
  IC50: 5 nM

## CCN(C)c1ncc(S(=O)(=O)c2ccc(CNC(=O)c3cnc4[nH]ncc4c3)cc2)s1 [N-[(4-{2-[ethyl(methyl)amino]-1,3-thiazole-5-sulfonyl}phenyl)methyl]-1H-pyrazolo[3,4-b]pyridine-5-carboxamide]
A2780 cells; Homo sapiens, A2780, 72 h, SRB
  IC50: 1.5 nM
NAMPT; NAMPT enzymatic assay
  IC50: 3.6 nM

## O=C(NCc1ccc(S(=O)(=O)c2ccccc2Oc2ccccc2)cc1)c1cc2cnccc2[nH]1 [N-({4-[(2-phenoxybenzene)sulfonyl]phenyl}methyl)-1H-pyrrolo[3,2-c]pyridine-2-carboxamide]
A2780 cells; [1]
  IC50: 7 nM
NAMPT; NAMPT enzymatic reaction
  IC50: 11 nM

## O=C(NCc1ccc(S(=O)(=O)c2cc(F)cc(Cl)c2)cc1)c1ccc2nccn2c1
A2780 cells; Homo sapiens, A2780, 72 h, SRB
  IC50: 0.3 nM
NAMPT; NAMPT enzymatic reaction
  IC50: 3.9 nM

## O=C(NCc1ccc(S(=O)(=O)c2cc(F)cc(Cl)c2)cc1)c1cnc2nccn2c1
A2780 cells; Homo sapiens, A2780, 72 h, SRB
  IC50: 2.9 nM
NAMPT; NAMPT enzymatic reaction
  IC50: 2.4 nM

## O=C(NCc1ccc(S(=O)(=O)c2ccc(Cl)cc2)cc1)c1cnc2[nH]ncc2c1 [N-({4-[(4-chlorobenzene)sulfonyl]phenyl}methyl)-1H-pyrazolo[3,4-b]pyridine-5-carboxamide]
A2780 cells; Homo sapiens, A2780, 72 h, SRB
  IC50: 22 nM
NAMPT; NAMPT enzymatic reaction
  IC50: 28.8 nM

## Cc1ccc(S(=O)(=O)c2ccc(CNC(=O)c3cc4ccncc4o3)cc2)cc1C
A2780 cells; Homo sapiens, A2780, 72 h, SRB
  IC50: 3 nM
NAMPT; NAMPT enzymatic reaction
  IC50: 15 nM

## Cc1ccc(S(=O)(=O)c2ccc(CNC(=O)c3cc4ccncc4o3)cc2)cc1F
A2780 cells; Homo sapiens, A2780, 72 h, SRB
  IC50: 3.3 nM
NAMPT; NAMPT enzymatic reaction
  IC50: 14 nM

## COc1cccc(S(=O)(=O)c2ccc(CNC(=O)c3cnc4[nH]ncc4c3)cc2)c1
A2780 cells; Homo sapiens, A2780, 72 h, SRB
  IC50: 10 nM
NAMPT; NAMPT enzymatic reaction
  IC50: 20.9 nM

## Cc1ccc(S(=O)(=O)c2ccc(CNC(=O)c3cnc4[nH]ncc4c3)cc2)cc1F
A2780 cells; Homo sapiens, A2780, 72 h, SRB
  IC50: 5.6 nM
NAMPT; NAMPT enzymatic reaction
  IC50: 11.7 nM

## Cc1cc(C)c(S(=O)(=O)c2ccc(CNC(=O)c3cnc4nccn4c3)cc2)c(C)c1
A2780 cells; Homo sapiens, A2780, 72 h, SRB
  IC50: 100 to 1000 nM
NAMPT; NAMPT enzymatic reaction
  IC50: 28.8 nM

## O=C(NCc1ccc(S(=O)(=O)c2cccc(N3CCCC3)c2)cc1)c1cc2ccncc2o1
A2780 cells; Homo sapiens, A2780, 72 h, SRB
  IC50: 7.4 nM
NAMPT; NAMPT enzymatic assay
  IC50: 8.2 nM

## CCOc1ccc(-c2ccc(S(=O)(=O)c3ccc(CNC(=O)c4cc5cnccc5[nH]4)cc3)cc2)cc1 [N-[(4-{[4-(4-ethoxyphenyl)benzene]sulfonyl}phenyl)methyl]-1H-pyrrolo[3,2-c]pyridine-2-carboxamide]
A2780 cells; Homo sapiens, A2780, 72 h, SRB
  IC50: 9 nM
NAMPT; NAMPT enzymatic assay
  IC50: 9 nM

## COc1ccc(C(C)C)cc1S(=O)(=O)c1ccc(CNC(=O)c2cc3cnccc3[nH]2)cc1 [N-[(4-{[2-methoxy-5-(propan-2-yl)benzene]sulfonyl}phenyl)methyl]-1H-pyrrolo[3,2-c]pyridine-2-carboxamide]
A2780 cells; [1]
  IC50: 12 nM
NAMPT; NAMPT enzymatic reaction
  IC50: 61 nM

## COc1ccc(S(=O)(=O)c2ccc(CNC(=O)c3ccc4nccn4c3)cc2)nc1 [N-{[4-(5-methoxypyridine-2-sulfonyl)phenyl]methyl}imidazo[1,2-a]pyridine-6-carboxamide]
A2780 cells; Homo sapiens, A2780, 72 h, SRB
  IC50: 17.3 nM
NAMPT; NAMPT enzymatic assay
  IC50: 22.9 nM

## Cc1cc(C(F)(F)F)ccc1S(=O)(=O)c1ccc(CNC(=O)c2cnc3nccn3c2)cc1
A2780 cells; Homo sapiens, A2780, 72 h, SRB
  IC50: 51.1 nM
NAMPT; NAMPT enzymatic assay
  IC50: 7.1 nM

## O=C(NCc1ccc(S(=O)(=O)c2cccc3c2OCO3)cc1)c1cnc2[nH]ncc2c1 [N-{[4-(2H-1,3-benzodioxole-4-sulfonyl)phenyl]methyl}-1H-pyrazolo[3,4-b]pyridine-5-carboxamide]
A2780 cells; Homo sapiens, A2780, 72 h, SRB
  IC50: 88.4 nM
NAMPT; NAMPT enzymatic assay
  IC50: 47 nM

## COc1cc(-n2cccn2)ccc1S(=O)(=O)c1ccc(CNC(=O)c2cnc3[nH]ncc3c2)cc1
A2780 cells; Homo sapiens, A2780, 72 h, SRB
  IC50: 9.4 nM
NAMPT; NAMPT enzymatic assay
  IC50: 24.2 nM

## Cc1ccc(F)cc1S(=O)(=O)c1ccc(CNC(=O)c2cnc3nccn3c2)cc1
A2780 cells; Homo sapiens, A2780, 72 h, SRB
  IC50: 35.1 nM
NAMPT; NAMPT enzymatic assay
  IC50: 2.7 nM

## Cc1cc(Cl)cnc1S(=O)(=O)c1ccc(CNC(=O)c2cnc3nccn3c2)cc1 [N-{[4-(5-chloro-3-methylpyridine-2-sulfonyl)phenyl]methyl}imidazo[1,2-a]pyrimidine-6-carboxamide]
A2780 cells; Homo sapiens, A2780, 72 h, SRB
  IC50: 22 nM
NAMPT; NAMPT enzymatic assay
  IC50: 2.2 nM

## CN(C)c1ncc(S(=O)(=O)c2ccc(CNC(=O)c3cc4ccncc4o3)cc2)cn1 [N-({4-[2-(dimethylamino)pyrimidine-5-sulfonyl]phenyl}methyl)furo[2,3-c]pyridine-2-carboxamide]
A2780 cells; Homo sapiens, A2780, 72 h, SRB
  IC50: 12 nM
NAMPT; NAMPT enzymatic assay
  IC50: 25.8 nM

## COc1cc(C)cc(S(=O)(=O)c2ccc(CNC(=O)c3cc4cnccc4[nH]3)cc2)c1
A2780 cells; Homo sapiens, A2780, 72 h, SRB
  IC50: 2.8 nM
NAMPT; NAMPT enzymatic reaction
  IC50: 9.6 nM

## O=C(NCc1ccc(S(=O)(=O)c2cc(F)cc(F)c2)cc1)c1cnc2nccn2c1
A2780 cells; Homo sapiens, A2780, 72 h, SRB
  IC50: 3 nM
NAMPT; NAMPT enzymatic reaction
  IC50: 2 nM

## Cc1cnc(S(=O)(=O)c2ccc(CNC(=O)c3ccc4nccn4c3)cc2)n1C [N-{[4-(1,5-dimethyl-1H-imidazole-2-sulfonyl)phenyl]methyl}imidazo[1,2-a]pyridine-6-carboxamide]
A2780 cells; Homo sapiens, A2780, 72 h, SRB
  IC50: 73.1 nM
NAMPT; NAMPT enzymatic assay
  IC50: 30.9 nM

## CCCCOc1ccc(S(=O)(=O)c2ccc(CNC(=O)c3cc4ccncc4o3)cc2)cc1 [N-({4-[(4-butoxybenzene)sulfonyl]phenyl}methyl)furo[2,3-c]pyridine-2-carboxamide]
A2780 cells; Homo sapiens, A2780, 72 h, SRB
  IC50: 13 nM
NAMPT; NAMPT enzymatic reaction
  IC50: 6.2 nM

## Cc1cccc(S(=O)(=O)c2ccc(CNC(=O)c3cc4ccncc4o3)cc2)c1F [N-({4-[(2-fluoro-3-methylbenzene)sulfonyl]phenyl}methyl)furo[2,3-c]pyridine-2-carboxamide]
A2780 cells; Homo sapiens, A2780, 72 h, SRB
  IC50: 7.9 nM
NAMPT; NAMPT enzymatic reaction
  IC50: 6.3 nM

## Cn1ncc2ccc(S(=O)(=O)c3ccc(CNC(=O)c4cnc5[nH]ncc5c4)cc3)cc21 [N-{[4-(1-methyl-1H-indazole-6-sulfonyl)phenyl]methyl}-1H-pyrazolo[3,4-b]pyridine-5-carboxamide]
A2780 cells; Homo sapiens, A2780, 72 h, SRB
  IC50: 3 nM
NAMPT; NAMPT enzymatic assay
  IC50: 4 nM

## CCCOc1ccc(S(=O)(=O)c2ccc(CNC(=O)c3cc4ccncc4o3)cc2)cc1
A2780 cells; Homo sapiens, A2780, 72 h, SRB
  IC50: 12 nM
NAMPT; NAMPT enzymatic reaction
  IC50: 49.5 nM

## O=C(NCc1ccc(S(=O)(=O)c2cnc3ccccc3c2)cc1)c1ccc2nccn2c1 [N-{[4-(quinoline-3-sulfonyl)phenyl]methyl}imidazo[1,2-a]pyridine-6-carboxamide]
A2780 cells; Homo sapiens, A2780, 72 h, SRB
  IC50: 1 nM
NAMPT; NAMPT enzymatic assay
  IC50: 14 nM

## Cn1ncc2ccc(S(=O)(=O)c3ccc(CNC(=O)c4ccc5nccn5c4)cc3)cc21 [N-{[4-(1-methyl-1H-indazole-6-sulfonyl)phenyl]methyl}imidazo[1,2-a]pyridine-6-carboxamide]
A2780 cells; Homo sapiens, A2780, 72 h, SRB
  IC50: 3.9 nM
NAMPT; NAMPT enzymatic assay
  IC50: 5 nM

## Cn1ncc2ccc(S(=O)(=O)c3ccc(CNC(=O)c4cnc5nccn5c4)cc3)cc21 [N-{[4-(1-methyl-1H-indazole-6-sulfonyl)phenyl]methyl}imidazo[1,2-a]pyrimidine-6-carboxamide]
A2780 cells; Homo sapiens, A2780, 72 h, SRB
  IC50: 5 nM
NAMPT; NAMPT enzymatic assay
  IC50: 1.6 nM

## O=C(NCc1ccc(S(=O)(=O)c2cccc(C(F)(F)F)c2Cl)cc1)c1cc2ccncc2o1
A2780 cells; Homo sapiens, A2780, 72 h, SRB
  IC50: 27.9 nM
NAMPT; NAMPT enzymatic assay
  IC50: 18.4 nM

## Cc1cncc(S(=O)(=O)c2ccc(CNC(=O)c3cnc4[nH]ncc4c3)cc2)n1 [N-{[4-(6-methylpyrazine-2-sulfonyl)phenyl]methyl}-1H-pyrazolo[3,4-b]pyridine-5-carboxamide]
A2780 cells; Homo sapiens, A2780, 72 h, SRB
  IC50: 31.2 nM
NAMPT; NAMPT enzymatic assay
  IC50: 34.9 nM

## CC(C)COc1ccc(S(=O)(=O)c2ccc(CNC(=O)c3cnc4[nH]ncc4c3)cc2)cc1 [N-[(4-{[4-(2-methylpropoxy)benzene]sulfonyl}phenyl)methyl]-1H-pyrazolo[3,4-b]pyridine-5-carboxamide]
A2780 cells; Homo sapiens, A2780, 72 h, SRB
  IC50: 16.2 nM
NAMPT; NAMPT enzymatic assay
  IC50: 26.3 nM

## O=C(NCc1ccc(S(=O)(=O)c2ccc(Cl)cc2C(F)(F)F)cc1)c1cnc2nccn2c1
A2780 cells; Homo sapiens, A2780, 72 h, SRB
  IC50: 68.4 nM
NAMPT; NAMPT enzymatic assay
  IC50: 7.9 nM

## O=C(NCc1ccc(S(=O)(=O)c2ccc(OC(F)(F)F)cc2)cc1)c1cc2ccncc2o1
A2780 cells; SRB
  IC50: 27.7 nM
NAMPT; NAMPT enzymatic assay
  IC50: 9.4 nM

## Cc1cccc(S(=O)(=O)c2ccc(CNC(=O)c3cc4ccncc4s3)cc2)c1C [N-({4-[(2,3-dimethylbenzene)sulfonyl]phenyl}methyl)thieno[2,3-c]pyridine-2-carboxamide]
A2780 cells; Homo sapiens, A2780, 72 h, SRB
  IC50: 4.4 nM
NAMPT; NAMPT enzymatic assay
  IC50: 11 nM

## Cc1cncc(S(=O)(=O)c2ccc(CNC(=O)c3cc4ccncc4s3)cc2)n1 [N-{[4-(6-methylpyrazine-2-sulfonyl)phenyl]methyl}thieno[2,3-c]pyridine-2-carboxamide]
A2780 cells; Homo sapiens, A2780, 72 h, SRB
  IC50: 5.1 nM
NAMPT; NAMPT enzymatic assay
  IC50: 4.8 nM
